The experiment addresses Metabotropic glutamate receptor 5 (Rattus norvegicus) (UniProt P31424). Put plainly: PubChem AID 651852. The conditions noted are these: HEK293 rat mGluR5 membranes, radioligand competition binding. (In a radioligand displacement assay an active substance lowers the binding of a labelled ligand.)

Active and inactive are the calls of the source. The rule behind the calls is not given here.

By IC50 is commonly meant the concentration at which inhibition is half-maximal.

Chain of Metabotropic glutamate receptor 5 (Rattus norvegicus) (P31424 whole entry, looked up): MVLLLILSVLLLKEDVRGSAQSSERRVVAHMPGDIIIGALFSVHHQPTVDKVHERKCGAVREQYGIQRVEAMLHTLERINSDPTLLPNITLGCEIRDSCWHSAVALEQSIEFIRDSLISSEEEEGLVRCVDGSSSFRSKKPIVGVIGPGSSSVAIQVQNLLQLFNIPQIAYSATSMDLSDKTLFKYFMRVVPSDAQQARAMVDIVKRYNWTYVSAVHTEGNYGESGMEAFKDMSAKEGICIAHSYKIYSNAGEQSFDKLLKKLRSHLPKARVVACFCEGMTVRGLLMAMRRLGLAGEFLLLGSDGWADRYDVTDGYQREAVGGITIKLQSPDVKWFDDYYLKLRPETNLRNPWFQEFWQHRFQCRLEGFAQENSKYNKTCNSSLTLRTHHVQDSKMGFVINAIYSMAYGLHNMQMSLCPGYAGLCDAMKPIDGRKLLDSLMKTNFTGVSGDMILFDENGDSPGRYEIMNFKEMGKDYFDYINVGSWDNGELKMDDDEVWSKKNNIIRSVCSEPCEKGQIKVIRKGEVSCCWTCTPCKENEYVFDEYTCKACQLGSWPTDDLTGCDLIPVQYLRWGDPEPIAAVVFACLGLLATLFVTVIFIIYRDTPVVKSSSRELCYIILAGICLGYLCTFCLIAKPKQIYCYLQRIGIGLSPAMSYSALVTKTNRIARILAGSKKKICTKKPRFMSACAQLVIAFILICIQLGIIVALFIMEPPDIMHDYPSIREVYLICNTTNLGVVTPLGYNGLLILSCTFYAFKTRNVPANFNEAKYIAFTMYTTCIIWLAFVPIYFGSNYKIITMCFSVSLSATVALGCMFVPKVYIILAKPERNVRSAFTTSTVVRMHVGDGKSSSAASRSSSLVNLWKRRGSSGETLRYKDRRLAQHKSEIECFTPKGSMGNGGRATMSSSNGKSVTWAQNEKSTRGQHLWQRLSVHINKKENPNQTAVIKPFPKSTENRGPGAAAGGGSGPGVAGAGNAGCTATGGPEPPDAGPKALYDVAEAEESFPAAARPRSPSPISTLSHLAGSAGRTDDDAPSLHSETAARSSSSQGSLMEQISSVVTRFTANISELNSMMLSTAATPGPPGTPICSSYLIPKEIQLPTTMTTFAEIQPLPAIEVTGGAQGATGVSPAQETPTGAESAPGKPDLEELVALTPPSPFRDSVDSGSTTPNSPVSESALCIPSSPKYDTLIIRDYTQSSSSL

With `O=S(=O)(c1ccc(F)cc1)N1CCCC(c2nc(-c3ccc(F)cc3)no2)C1` (stereo not drawn), the IC50 was > 30 µM (inactive). Consider `O=S(=O)(c1ccc(C#Cc2cccc(F)c2)cc1)N1CCOCC1`, for which the IC50 was > 30 µM (inactive). For `CS(=O)(=O)N(CC(=O)NCC1CC1)c1cc(C(F)(F)F)ccc1Cl` the value was > 30 µM (inactive).

(Values after PubChem BioAssay AID651852 (Vanderbilt Specialized Chemistry Center, 2012).)
